Results from patent US10478437B2, “Combination therapy to enhance the anticancer efficacy of platinum drugs” (University of Pittsburgh-of the Commonwealth System of …, priority 2014, dated 2019).

Key:
[1] = tested on: cisplatin-resistant ovarian cancer cell line A2780cis; test: CellTiter-Blue cell viability assay, compound alone or with cisplatin or carboplatin, 24 h; assay type: cell-based, human; conditions: for Combination Index: CompuSyn software
Outline: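 A2780cis cells received compound at 10, 20 or 50 μM, alone or with cisplatin or carboplatin, for 24 h before CellTiter-Blue viability read-out. Data are mean±SD, combinations vs compound alone compared by Student's t test (P<0.05), and combination index computed by the Chou method.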

A2780cis cells = test: Extracellular flux analysis, oxygen consumption rate (OCR), Seahorse XF24; assay type: cell-based, human; conditions: compound 50 μM + cisplatin 50 μM, 4 h, FIG. 8B; in words
Protocol: Oxygen consumption rate (OCR) and extracellular acidification rate (ECAR) were measured as previously described (Qian and Van Houten, 2010). Cells were seeded in XF24 cell culture plates at 4×10^4 cells/well and incubated in 5% CO2 at 37° C. Prior to the analysis, cells were washed and growth medium was replaced with bicarbonate-free modified RPMI 1640 medium, the “assay medium” (Molecular Devices, Sunnyvale, Calif.). Cells were then incubated for another 60 min in a 37° C. incubator without CO2. OCR and ECAR measurements were then performed simultaneously using a Seahorse XF24 Extracellular Flux Analyzer (Seahorse Bioscience, North Billerica, Mass.).
To determine the effects of the compounds on DNA damage and mitochondrial dysfunction, A2780cis cells were treated with cisplatin (20 μM) alone or the combination of cisplatin with 20 μM of compound 1-6. Replication protein A (RPA) is a single strand-specific DNA-binding protein, consisting of three subunits, RPA70, RPA32, and RPA14. RPA32 is phosphorylated in response to DNA replication stress. Western blot analysis was performed to evaluate the phosphorylation of RPA32 and histone H2AX, the induction of Noxa expression and cleavage of caspase-3. […] The oxygen consumption rate (OCR) was measured by a Seahorse extracellular flux analyzer.

[2] = compound 10 μM with cisplatin (20 μM)
[3] = compound 20 μM with cisplatin (20 μM)
[4] = compound 50 μM with cisplatin (20 μM)

CCOCCCn1c(=S)[nH]c2c(C)cccc2c1=O [Compound 1-6]
cell viability after combination with carboplatin compared to carboplatin alone ([1]; 24 h, FIG. 6, in words): cell viability was reduced
viability at 10 µM ([1]; Homo sapiens, A2780cis, compound 10 μM, 24 h, untreated cells = 100%, read-out: survival (%) of cells with compound alone): 98.9 ± 3.1%
viability at 20 µM ([1]; Homo sapiens, A2780cis, compound 20 μM, 24 h, untreated cells = 100%, read-out: survival (%) of cells with compound alone): 95.4 ± 4.2%
viability at 50 µM ([1]; Homo sapiens, A2780cis, compound 50 μM, 24 h, untreated cells = 100%, read-out: survival (%) of cells with compound alone): 93.7 ± 4.4%
Survival (%) of cells with compound and carboplatin (200 μM) ([1]; compound 10 μM + carboplatin 200 μM, 24 h): 64.5 ± 2.7%
survival (%) of cells with compound and cisplatin (20 μM) ([1]; compound 10 μM + cisplatin 20 μM, 24 h): 58.8 ± 1.5%
Grading (of combination index) [1, 2]: Synergism
Combination Index [1, 2]: 0.67
potency at enhancing the cytotoxicity of cisplatin compared to mdivi-1 ([1]; compound 10 μM with cisplatin, FIG. 4, in words): more potent than mdivi-1
Survival (%) of cells with compound and carboplatin (200 μM) ([1]; compound 20 μM + carboplatin 200 μM, 24 h): 48.0 ± 3.0%
survival (%) of cells with compound and cisplatin (20 μM) ([1]; compound 20 μM + cisplatin 20 μM, 24 h): 28.0 ± 1.6%
Grading (of combination index) [1, 3]: Strong
Combination Index [1, 3]: 0.24
Survival (%) of cells with compound and carboplatin (200 μM) ([1]; compound 50 μM + carboplatin 200 μM, 24 h): 2.5 ± 0.4%
survival (%) of cells with compound and cisplatin (20 μM) ([1]; compound 50 μM + cisplatin 20 μM, 24 h): 1.5 ± 0.6%
Grading (of combination index) [1, 4]: Very strong
Combination Index [1, 4]: 0.01
mitochondrial function (OCR, response to oligomycin) after combination with cisplatin (A2780cis cells): uncoupling of mitochondria was observed
